Data: US20240262909A1, “TIM-3 MODULATES ANTI-TUMOR IMMUNITY BY REGULATING INFLAMMASOME ACTIVATION” (THE BRIGHAM AND WOMEN'S HOSPITAL, INC., priority 2021, published 2024)

Tests used:
[1] = tested on: MC38-OVAdim tumor; test: MC38-OVAdim tumor growth and weight in Tim3fl.fl and Tim3fl.flZbtb46 cre mice with or without NAC; assay type: in vivo; details: Tim3cko mice, NAC daily in drinking water 40 mM
Text: (§1) To investigate the effect of oxidative stress in Tim3^cko tumor bearing animals the inventors implanted Tim3^fl.fl and Tim3^fl.flZbtb46 cre mice with MC38-OVAdim and treated with or without antioxidant N-Acetyl-Cysteine (NAC) for the duration of the experiment. […] To determine whether mitigation of oxidative stress in Tim3^cko tumors also affected IL-1β levels intratumorally, the inventors prepared tumor supernatants and determined the levels of IL-1β in WT and Tim3cko animals treated with or without NAC.
(§2) The C57BL/6-derived colon carcinoma MC38 and MC38-OVAdim were maintained at 37° C. with 5% CO2 in DMEM medium supplemented with 10% heat-inactivated fetal calf serum, penicillin, and streptomycin and 1% Sodium Pyruvate. The C57BL/6-derived melanoma cell lines-B16 and B16-OVA-transfected clone were maintained at 37° C. with 5% CO2 in RPMI medium supplemented with 10% heat-inactivated fetal calf serum, penicillin, and streptomycin. MC38- OVA^dim (0.5×10^6), B16F10/B16-OVA (0.25×10^6) and MC38 (1.0×10^6) cells were injected subcutaneously in 100 μl PBS on the flank. Tumor size was determined by the formula L×W where L=length, W=width on the indicated days. In some experiments, mice were treated with anti-IL-1β (B122) and anti-IL-18 (YIGIF74-1 G7) or appropriate control Hamster Ig and Rat IgG2a (all at 8 mg/kg) i.p. on days 3, 6, 9 post tumor implantation. […]

[2] = tested on: IL-1β; test: IL-1β levels in tumor supernatants of WT and Tim3cko animals with or without NAC; assay type: in vivo, mice; details: Tim3cko tumors; NAC in drinking water 40 mM
Text: as §1, §2

[3] = tested on: MC38-OVA tumor; test: MC38-OVA tumor growth and weight in Tim3fl.fl and Tim3fl.flxCD11c cre mice under inflammasome pathway inhibition; assay type: in vivo; details: Tim-3cko mice, 8 mg/kg
Text: FIGS. 4A-4W: Loss of Tim3 on DC promotes inflammasome activation. (FIG. 4A) Unidirectional analysis of the fraction of DCs expressing ligand X and the fraction of T cells expressing the cognate Receptor; Ligand (MigDC): Receptor (CD8) interaction from WT (left) and Tim3cko (right) tumors. (FIG. 4B) Bar plot of data from FIG. 4A. (FIG. 4C). ECDF plots showing enrichment of IL-18 signature and (FIG. 4D) IL-1 signature in WT and Tim3^ckoCD8+ TILs. (FIG. 4E) ECDF plot of enrichment score for inflammasome signature in WT or Tim3^cko migratory DC, (p=1.5*10^−03), (FIG. 4F) Dot plot of selected genes from inflammasome signature. (FIG. 4G) ECDF plot of enrichment score for Oxidative Stress signature, (FIG. 4H) Dot plot of selected genes from Oxidative Stress signature. (FIG. 4I) MC38-OVA (0.5×10^6 cells) were subcutaneously implanted into Tim3^fl.fl and Tim3^fl.flxCD11c cre mice and on D14 tumors mononuclear cells were isolated and incubated with DHR123 for 30 minutes followed by flow-cytometric analysis of activated DHR123 as a measure of ROS activity in tumor infiltrating DC. […]
The C57BL/6-derived colon carcinoma MC38 and MC38-OVAdim were maintained at 37° C. with 5% CO2 in DMEM medium supplemented with 10% heat-inactivated fetal calf serum, penicillin, and streptomycin and 1% Sodium Pyruvate. […] Tumor size was determined by the formula L×W where L=length, W=width on the indicated days. […]

SMILES: CC(=O)N[C@@H](CS)C(=O)O [NAC, N-Acetyl-Cysteine]
- protective inhibition of tumor growth (tumor growth) [1]: completely abrogated
- protective inhibition of tumor growth (tumor weights post-harvest) [1]: completely abrogated
- elevated intratumoral IL-1β levels (tumor supernatants) [2]: completely reversed

SMILES: CC(C)(O)c1coc(S(=O)(=O)[N-]C(=O)Nc2c3c(cc4c2CCC4)CCC3)c1.[Na+] [CRID3]
- protective anti-tumor immunity observed in the Tim-3cko [3]: abolished the protective anti-tumor immunity
